Article PMC7488503 (Acta Pharmaceutica Sinica. B, 2020)

What was measured:
VEGFR2 = VEGFR2 (Homo sapiens, UniProt P35968); test: Z′-LYTE kinase inhibition assay
FGFR1 = FGFR1 (Homo sapiens, UniProt P11362); test: Z′-LYTE kinase inhibition assay
PDGFRβ = PDGFRβ (Homo sapiens, UniProt P09619); test: Z′-LYTE kinase inhibition assay
HUVECs = test: VEGF-induced HUVECs proliferation; type: cell-based; details: Homo sapiens, HUVEC, 72 h, read-out: IC50 HUVECs
HBVPs = test: PDGF-BB-induced HBVPs proliferation; type: cell-based; details: Homo sapiens, 48 h, read-out: IC50 HBVPs
[1] = system: A549 lung cancer xenograft; test: A549 lung cancer subcutaneous xenograft model; type: in vivo, Balb/c nude mice
[2] = system: NCI-H520 lung cancer xenograft; test: NCI-H520 lung cancer subcutaneous xenograft model; type: in vivo, Balb/c nude mice

Chain of VEGFR2 (P35968 20-1356): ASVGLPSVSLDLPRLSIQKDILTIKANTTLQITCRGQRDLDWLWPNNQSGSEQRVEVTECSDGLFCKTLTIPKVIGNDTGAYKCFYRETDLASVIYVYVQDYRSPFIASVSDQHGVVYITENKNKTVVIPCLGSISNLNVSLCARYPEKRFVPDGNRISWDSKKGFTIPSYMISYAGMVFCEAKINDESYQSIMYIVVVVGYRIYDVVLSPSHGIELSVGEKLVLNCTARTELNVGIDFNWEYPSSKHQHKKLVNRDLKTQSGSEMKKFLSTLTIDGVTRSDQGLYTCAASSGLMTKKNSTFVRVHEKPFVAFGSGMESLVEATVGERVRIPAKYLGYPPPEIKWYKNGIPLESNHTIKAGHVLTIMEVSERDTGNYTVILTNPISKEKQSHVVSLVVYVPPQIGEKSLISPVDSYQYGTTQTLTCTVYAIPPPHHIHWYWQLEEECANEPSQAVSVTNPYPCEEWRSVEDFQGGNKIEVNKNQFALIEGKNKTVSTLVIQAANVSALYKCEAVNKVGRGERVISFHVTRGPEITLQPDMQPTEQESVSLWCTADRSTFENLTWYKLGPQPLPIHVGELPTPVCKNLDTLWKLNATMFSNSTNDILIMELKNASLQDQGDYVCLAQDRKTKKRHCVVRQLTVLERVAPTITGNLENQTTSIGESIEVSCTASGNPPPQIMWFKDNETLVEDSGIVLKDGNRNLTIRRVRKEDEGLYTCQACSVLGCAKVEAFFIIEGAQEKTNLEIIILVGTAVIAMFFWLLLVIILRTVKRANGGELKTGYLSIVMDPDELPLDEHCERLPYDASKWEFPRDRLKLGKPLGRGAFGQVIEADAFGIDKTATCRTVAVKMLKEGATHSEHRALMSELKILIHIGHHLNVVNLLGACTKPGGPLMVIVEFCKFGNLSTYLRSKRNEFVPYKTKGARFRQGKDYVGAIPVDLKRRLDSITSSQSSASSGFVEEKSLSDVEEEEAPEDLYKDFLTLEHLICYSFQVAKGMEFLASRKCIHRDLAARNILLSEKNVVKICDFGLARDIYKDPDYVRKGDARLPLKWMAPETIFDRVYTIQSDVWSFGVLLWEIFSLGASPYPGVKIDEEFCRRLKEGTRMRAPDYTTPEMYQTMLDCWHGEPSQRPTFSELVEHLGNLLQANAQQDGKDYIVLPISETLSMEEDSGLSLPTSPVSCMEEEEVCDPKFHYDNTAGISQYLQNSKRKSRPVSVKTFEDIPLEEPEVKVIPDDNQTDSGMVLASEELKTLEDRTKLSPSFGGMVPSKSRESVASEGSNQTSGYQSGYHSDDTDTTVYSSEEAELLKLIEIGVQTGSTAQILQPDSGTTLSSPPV
Chain of PDGFRβ (P09619 33-1106): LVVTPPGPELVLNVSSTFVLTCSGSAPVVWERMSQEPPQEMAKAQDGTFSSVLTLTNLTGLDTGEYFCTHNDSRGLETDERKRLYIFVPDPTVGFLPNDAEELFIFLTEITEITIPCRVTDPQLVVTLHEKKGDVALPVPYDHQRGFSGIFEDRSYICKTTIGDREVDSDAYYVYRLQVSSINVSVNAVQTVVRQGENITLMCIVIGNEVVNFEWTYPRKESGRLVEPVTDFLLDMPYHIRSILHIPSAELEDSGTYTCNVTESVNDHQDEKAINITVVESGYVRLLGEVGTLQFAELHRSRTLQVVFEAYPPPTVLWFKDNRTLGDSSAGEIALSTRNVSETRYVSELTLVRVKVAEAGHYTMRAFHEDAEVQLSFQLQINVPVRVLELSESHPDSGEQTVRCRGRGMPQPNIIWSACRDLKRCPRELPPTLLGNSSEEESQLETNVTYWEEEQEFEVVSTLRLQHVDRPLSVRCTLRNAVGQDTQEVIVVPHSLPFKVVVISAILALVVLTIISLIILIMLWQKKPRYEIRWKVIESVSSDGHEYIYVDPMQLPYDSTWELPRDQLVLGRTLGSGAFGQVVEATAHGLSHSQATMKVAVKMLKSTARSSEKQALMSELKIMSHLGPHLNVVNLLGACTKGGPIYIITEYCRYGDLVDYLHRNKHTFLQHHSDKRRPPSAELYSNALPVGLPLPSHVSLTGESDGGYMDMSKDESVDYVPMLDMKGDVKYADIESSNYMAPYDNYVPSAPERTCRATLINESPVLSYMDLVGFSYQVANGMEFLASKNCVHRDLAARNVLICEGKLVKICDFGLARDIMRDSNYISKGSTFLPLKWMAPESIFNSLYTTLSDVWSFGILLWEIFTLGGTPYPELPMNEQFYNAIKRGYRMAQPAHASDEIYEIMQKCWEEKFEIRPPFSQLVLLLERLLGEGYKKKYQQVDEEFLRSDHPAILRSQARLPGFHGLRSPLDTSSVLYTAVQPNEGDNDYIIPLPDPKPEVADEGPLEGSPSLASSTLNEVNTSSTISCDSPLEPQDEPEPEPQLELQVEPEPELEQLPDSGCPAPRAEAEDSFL
Chain of FGFR1 (P11362 22-822): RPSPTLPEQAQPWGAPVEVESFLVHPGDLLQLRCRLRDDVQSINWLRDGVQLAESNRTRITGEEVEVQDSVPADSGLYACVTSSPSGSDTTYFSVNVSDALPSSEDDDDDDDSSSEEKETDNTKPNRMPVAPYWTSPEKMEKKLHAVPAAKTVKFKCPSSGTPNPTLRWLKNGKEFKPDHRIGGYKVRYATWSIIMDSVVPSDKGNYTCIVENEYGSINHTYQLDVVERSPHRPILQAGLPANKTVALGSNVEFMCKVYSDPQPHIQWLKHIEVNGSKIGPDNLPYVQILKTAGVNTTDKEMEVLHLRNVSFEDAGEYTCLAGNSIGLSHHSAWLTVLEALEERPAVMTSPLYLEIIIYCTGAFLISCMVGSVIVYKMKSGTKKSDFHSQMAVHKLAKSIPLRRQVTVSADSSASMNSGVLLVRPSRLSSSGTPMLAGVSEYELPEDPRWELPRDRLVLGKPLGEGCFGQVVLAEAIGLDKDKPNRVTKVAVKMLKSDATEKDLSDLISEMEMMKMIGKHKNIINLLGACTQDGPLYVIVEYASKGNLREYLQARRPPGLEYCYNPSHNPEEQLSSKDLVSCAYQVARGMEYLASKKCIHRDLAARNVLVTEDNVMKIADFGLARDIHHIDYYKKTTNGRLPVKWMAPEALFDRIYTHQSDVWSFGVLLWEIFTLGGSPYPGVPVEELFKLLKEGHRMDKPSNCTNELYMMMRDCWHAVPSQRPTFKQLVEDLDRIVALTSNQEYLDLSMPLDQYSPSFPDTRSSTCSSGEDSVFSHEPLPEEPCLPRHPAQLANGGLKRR

Compound	IC50 (VEGFR2)	IC50 (FGFR1)	IC50 (PDGFRβ)	IC50 (HUVECs)	IC50 (HBVPs)	T/C ([1]; 100 mg/kg p.o. QD, Day 21)	TGI ([1]; 100 mg/kg p.o. QD, Day 21)	Tumor volume at Day 21 ([1]; 100 mg/kg p.o. QD, mean ± SEM)	area of CD31 (tumor micro-vessel density, IHC) ([1]; 100 mg/kg, mean ± SEM, n = 3, control 3.38 ± 0.49)	T/C ([2]; 100 mg/kg p.o. QD, Day 21)	TGI ([2]; 100 mg/kg p.o. QD, Day 21)	Tumor volume at Day 21 ([2]; 100 mg/kg p.o. QD, mean ± SEM)	area of CD31 (tumor micro-vessel density, IHC) ([2]; 100 mg/kg, mean ± SEM, n = 3, control 4.96 ± 0.62)
O=C1NCOc2cc3nccc(Oc4ccc(NC(=S)NC5CC5)c(Cl)c4)c3cc21 [B3]	227 nM	777 nM	410 nM	–	–	–	–	–	–	–	–	–	–
COc1cc2nccc(Oc3ccc(NC(N)=S)c(Cl)c3)c2cc1C(N)=O [C1]	32.7 nM	436 nM	77.2 nM	–	–	–	–	–	–	–	–	–	–
COC(=O)c1ccc2c(c1)NC(=O)/C2=C(\Nc1ccc(N(C)C(=O)CN2CCN(C)CC2)cc1)c1ccccc1 [Nintedanib, reference compound]	–	–	–	41 nM	1670 nM	26%	80%	391 ± 43 mm^3	1.05 ± 0.33	45%	62%	585 ± 101 mm^3	1.99 ± 0.04
